Source: patent US7288654B2, “Fused-ring pyridine derivative, process for producing the same, and use” (Takeda Pharmaceutical Company Ltd, priority 2003, dated 2007)

What follows are compounds tested against T1, human CCR5 (Homo sapiens, UniProt P51681) (assay: [125I]-RANTES binding inhibition in CCR5/CHO cells (CCR5 antagonist activity)). Conditions: test compound 1 μM, 100 pM [125I]-RANTES, room temperature, 40 minutes.
T1 construct: expressed in transfected cells
Method: (1) Cloning of Human CCR5 Chemokine Receptor
Cloning of a CCR5 gene was conducted from human spleen cDNA by a PCR method. Using 0.5 ng of spleen cDNA (Toyobo Co., Ltd., QUICK-Clone cDNA) as a template, the PCR reaction was carried out in a DNA Thermal Cycler 480 (Perkin Elmer) using a TaKaRa EX Taq (Takara Shuzo Co., Ltd.) (reaction conditions: 30 cycles of treatments at 95° C. for 1 minute, at 60° C. for 1 minute, and at 75° C. for 5 minutes) by adding 25 pmol of primers, SEQ ID NO. 1 (sequence length: 34; sequence type: nucleic acid; number of chains: a single chain; topology: linear; sequence kind: other nucleic acid, synthetic DNA) described in Experimental Example (1) of WO 99/32100, and SEQ ID NO. 2 (sequence length: 34; sequence type: nucleic acid; number of chains: a single chain; topology: linear; sequence kind: other nucleic acid, synthetic DNA) described in Experimental Example (1) of WO 99/32100, respectively, which were prepared by referring to the base sequence of the CCR5 gene described by Samson et al. (Biochemistry 35 (11), 3362-3367 (1996)). The PCR products were subjected to agarose gel electrophoresis to collect DNA fragments of about 1.0 kb. Then, the CCR5 gene was cloned using an Original TA Cloning Kit (Funakoshi Co., Ltd.).
(2) Preparation of Plasmid for Expression of Human CCR5
The plasmids obtained above were digested with restriction enzymes XbaI (Takara Shuzo Co., Ltd.) and BamHI (Takara Shuzo Co., Ltd.), and subjected to agarose gel electrophoresis to collect DNA fragments of about 1.0 kb. The DNA fragments and a plasmid pcDNA3.1 (Funakoshi Co., Ltd.) for expression in animal cells, which was previously digested with XbaI and BamHI, were mixed and ligated by DNA Ligation Kit Ver.2 (Takara Shuzo Co., Ltd.). Transformation of E. coli JM109 competent cells (Takara Shuzo Co., Ltd.) gave plasmid pCKR5.
(3) Introduction of the Plasmid for Expression of Human CCR5 into CHO—K1 Cells and Expression Thereof
CHO—K1 cells grown in a 750 ml tissue culture flask (Becton Dickinson) using Ham's F12 medium (Nihon Pharmaceutical Co., Ltd.) containing 10% fetal bovine serum (Lifetech Oriental) were collected from the flask by using 0.5 g/L trypsin-0.2 g/L EDTA (Lifetech Oriental). The cells were then washed with PBS (Lifetech Oriental), centrifuged (1000 rpm, 5 minutes), and suspended in PBS. Next, DNA was introduced into the cells using Gene Pulser (Bio-Rad Laboratories Inc.) under the following conditions. […]
Subsequently, the Geneticin-resistant strains were cultured in the 96-well plate (Becton Dickinson), and then CCR5-expressing cells were selected from the resistant strains. […] The cells to which the ligand bound specifically, i.e., CCR5/CHO strains, were selected by measurement of radioactivity by γ-counter. […]

T1 sequence (P51681 whole entry): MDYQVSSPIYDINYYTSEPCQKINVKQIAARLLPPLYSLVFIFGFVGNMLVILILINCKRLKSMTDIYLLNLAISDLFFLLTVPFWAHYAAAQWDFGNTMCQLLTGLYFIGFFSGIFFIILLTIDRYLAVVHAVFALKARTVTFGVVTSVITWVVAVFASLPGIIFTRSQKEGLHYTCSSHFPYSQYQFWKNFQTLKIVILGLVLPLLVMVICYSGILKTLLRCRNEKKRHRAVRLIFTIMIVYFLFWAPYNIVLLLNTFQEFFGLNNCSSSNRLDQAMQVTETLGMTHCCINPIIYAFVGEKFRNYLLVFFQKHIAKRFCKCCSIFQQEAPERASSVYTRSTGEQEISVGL

Going from `CCCCOCCOc1ccc(-c2cnc3c(c2)C=C(C(=O)Nc2ccc([S@@+]([O-])Cc4cncn4CCC)cc2)CCCN3CC(C)C)cc1` [Compound 1, (S)-3-[4-(2-butoxyethoxy)phenyl]-10-isobutyl-N-[4-[[(1-propyl-1H-imidazol-5-yl)methyl]sulfinyl]phenyl]-7,8,9,10-tetrahydropyrido[2,3-b]azocine-6-carboxamide] to `CCCCOCCOc1ccc(-c2cnc3c(c2)C=C(C(=O)Nc2ccc([S@@+]([O-])Cc4cncn4CCC)cc2)CCN3CC(C)C)cc1` [Compound 3, (S)-3-[4-(2-butoxyethoxy)phenyl]-9-isobutyl-N-[4-[[(1-propyl-1H-imidazol-5-yl)methyl]sulfinyl]aniline]-8,9-dihydro-7H-pyrido[2,3-b]azepine-6-carboxamide], the “Binding Inhibitory Ratio (%)” value rises from 94% to 100%.

Going from `CCCCOCCOc1ccc(-c2cnc3c(c2)C=C(C(=O)Nc2ccc([S@@+]([O-])Cc4cncn4CCC)cc2)CCCN3CCC)cc1` [Compound 2, (S)-3-[4-(2-butoxyethoxy)phenyl]-10-propyl-N-[4-[[(1-propyl-1H-imidazol-5-yl)methyl]sulfinyl]phenyl]-7,8,9,10-tetrahydropyrido[2,3-b]azocine-6-carboxamide] to `CCCCOCCOc1ccc(-c2cnc3c(c2)C=C(C(=O)Nc2ccc(CN(C)C4CCOCC4)cc2)CCN3CC(C)C)cc1` [Compound 4, 3-[4-(2-butoxyethoxy)phenyl]-9-isobutyl-N-[4-[[methyl(tetrahydro-2H-pyran-4-yl)amino]methyl]phenyl]-8,9-dihydro-7H-pyrido[2,3-b]azepine-6-carboxamide], the “Binding Inhibitory Ratio (%)” value rises from 93% to 100%.
